Data: the CheMixHub viscosity set
Several values for one entry are separate records, joined by “and”; a condition that tells them apart may be missing. Identical values can stand only once. ± gives the uncertainty stated by the source.

Assay: xn = mol fraction of the nth substance listed

Cc1ccccc1C + CCCCCCO
viscosity, 101 kPa
Conditions	303.15 K	313.15 K	318.15 K	323.15 K
x2 = 0.0999	0.758 ± 0.008 mPa·s	0.663 ± 0.007 mPa·s	–	0.584 ± 0.006 mPa·s
x2 = 0.1	0.7581 ± 0.0099 mPa·s	0.6626 ± 0.0087 mPa·s	–	0.5835 ± 0.0077 mPa·s
x2 = 0.1999	0.852 ± 0.009 mPa·s	0.731 ± 0.007 mPa·s	–	0.637 ± 0.007 mPa·s
x2 = 0.2	0.852 ± 0.011 mPa·s	0.7312 ± 0.0095 mPa·s	0.6825 ± 0.0089 mPa·s	0.6374 ± 0.0084 mPa·s
x2 = 0.2999	0.978 ± 0.01 mPa·s	0.829 ± 0.008 mPa·s	–	0.713 ± 0.007 mPa·s
x2 = 0.3	0.9776 ± 0.013 mPa·s	0.8292 ± 0.011 mPa·s	–	0.7127 ± 0.0093 mPa·s
x2 = 0.4	1.142 ± 0.015 mPa·s	0.9571 ± 0.012 mPa·s	–	0.8098 ± 0.01 mPa·s
x2 = 0.4001	1.142 ± 0.012 mPa·s	0.957 ± 0.01 mPa·s	–	0.81 ± 0.008 mPa·s
x2 = 0.4997	1.361 ± 0.014 mPa·s	1.118 ± 0.011 mPa·s	–	0.933 ± 0.009 mPa·s
x2 = 0.5	1.361 ± 0.017 mPa·s	1.118 ± 0.014 mPa·s	–	0.933 ± 0.012 mPa·s
x2 = 0.6	1.651 ± 0.017 mPa·s and 1.651 ± 0.021 mPa·s	1.325 ± 0.013 mPa·s and 1.325 ± 0.017 mPa·s	–	1.087 ± 0.011 mPa·s and 1.087 ± 0.014 mPa·s
x2 = 0.7	2.034 ± 0.021 mPa·s and 2.034 ± 0.025 mPa·s	1.596 ± 0.016 mPa·s and 1.596 ± 0.02 mPa·s	–	1.284 ± 0.013 mPa·s and 1.284 ± 0.016 mPa·s
x2 = 0.8	2.532 ± 0.026 mPa·s and 2.532 ± 0.032 mPa·s	1.951 ± 0.02 mPa·s and 1.951 ± 0.024 mPa·s	–	1.541 ± 0.016 mPa·s and 1.541 ± 0.019 mPa·s
x2 = 0.8999	3.141 ± 0.032 mPa·s	2.391 ± 0.025 mPa·s	–	1.859 ± 0.019 mPa·s
x2 = 0.9	3.141 ± 0.039 mPa·s	2.391 ± 0.03 mPa·s	–	1.859 ± 0.023 mPa·s

CCC#N + CN(C)C=O
303.15 K, 101.33 kPa
Conditions	viscosity [mPa·s]
x1 = 0.1013	0.6977 ± 0.0048
x1 = 0.1952	0.6428 ± 0.0045
x1 = 0.3003	0.5983 ± 0.0043
x1 = 0.4007	0.5648 ± 0.0042
x1 = 0.4949	0.5385 ± 0.0041
x1 = 0.5976	0.5113 ± 0.004
x1 = 0.6964	0.4839 ± 0.0039
x1 = 0.7945	0.4533 ± 0.0037
x1 = 0.9	0.4186 ± 0.0036

CCC#N + CS(C)=O
viscosity [mPa·s]
Conditions	298.15 K	303.15 K	308.15 K	313.15 K	318.15 K	323.15 K
101 kPa, x2 = 0.1078	0.49 ± 0.01	0.47 ± 0.01	0.44 ± 0.01	0.43 ± 0.01	0.4 ± 0.01	0.35 ± 0.01
101 kPa, x2 = 0.2092	0.56 ± 0.01	0.54 ± 0.01	0.51 ± 0.01	0.48 ± 0.01	0.46 ± 0.01	0.4 ± 0.01
101 kPa, x2 = 0.3026	0.63 ± 0.01	0.6 ± 0.01	0.57 ± 0.01	0.55 ± 0.01	0.52 ± 0.01	0.45 ± 0.01
101 kPa, x2 = 0.3983	0.72 ± 0.02	0.69 ± 0.02	0.65 ± 0.01	0.62 ± 0.01	0.6 ± 0.01	0.51 ± 0.01
101 kPa, x2 = 0.4995	0.85 ± 0.02	0.81 ± 0.02	0.75 ± 0.02	0.71 ± 0.02	0.68 ± 0.02	0.58 ± 0.01
101 kPa, x2 = 0.6026	1.01 ± 0.02	0.96 ± 0.02	0.89 ± 0.02	0.84 ± 0.02	0.79 ± 0.02	0.68 ± 0.02
101 kPa, x2 = 0.7077	1.2 ± 0.03	1.12 ± 0.02	1.04 ± 0.02	0.98 ± 0.02	0.92 ± 0.02	0.78 ± 0.02
101 kPa, x2 = 0.7966	1.39 ± 0.03	1.29 ± 0.03	1.2 ± 0.03	1.1 ± 0.02	1.05 ± 0.02	0.89 ± 0.02
101 kPa, x2 = 0.9014	1.67 ± 0.04	1.54 ± 0.03	1.4 ± 0.03	1.31 ± 0.03	1.23 ± 0.03	1.03 ± 0.02
101.33 kPa, x1 = 0.1009	–	1.547 ± 0.0093	–	–	–	–
101.33 kPa, x1 = 0.202	–	1.322 ± 0.0081	–	–	–	–
101.33 kPa, x1 = 0.3031	–	1.12 ± 0.007	–	–	–	–
101.33 kPa, x1 = 0.4043	–	0.9436 ± 0.006	–	–	–	–
101.33 kPa, x1 = 0.499	–	0.8012 ± 0.0053	–	–	–	–
101.33 kPa, x1 = 0.6002	–	0.6745 ± 0.0047	–	–	–	–
101.33 kPa, x1 = 0.7153	–	0.5619 ± 0.0042	–	–	–	–
101.33 kPa, x1 = 0.798	–	0.4937 ± 0.0039	–	–	–	–
101.33 kPa, x1 = 0.8994	–	0.4328 ± 0.0036	–	–	–	–

OCCN(CCO)CCO + CN1CCCC1=O
viscosity [mPa·s], 101 kPa
Conditions	x2 = 0.0728	x2 = 0.1508	x2 = 0.2354	x2 = 0.3199	x2 = 0.4141	x2 = 0.5135	x2 = 0.6225	x2 = 0.7384	x2 = 0.863
293.15 K	572.9 ± 37	337.4 ± 20	162.4 ± 9	84.29 ± 4.5	43.36 ± 2.2	22.93 ± 1.2	11.2 ± 0.58	6.152 ± 0.32	3.354 ± 0.17
303.15 K	255.2 ± 15	159.4 ± 9	84.21 ± 4.5	47.61 ± 2.5	27.51 ± 1.4	14.93 ± 0.77	8.012 ± 0.41	4.62 ± 0.23	2.747 ± 0.14
313.15 K	123.8 ± 6.8	77.19 ± 4.1	47.61 ± 2.5	28.9 ± 1.5	16.82 ± 0.87	10.34 ± 0.53	5.907 ± 0.3	3.554 ± 0.18	1.892 ± 0.097
323.15 K	56.97 ± 3.1	40.67 ± 2.2	29.54 ± 1.6	18.75 ± 0.97	11.33 ± 0.58	7.604 ± 0.39	4.552 ± 0.23	2.766 ± 0.14	1.497 ± 0.076

Cc1ccc(Cl)cc1 + CCCCCC
viscosity [mPa·s], 100 kPa
Conditions	298.15 K	308.15 K	318.15 K
x1 = 0.0878	0.332 ± 0.007	0.307 ± 0.007	0.285 ± 0.006
x1 = 0.1581	0.352 ± 0.008	0.324 ± 0.007	0.3 ± 0.006
x1 = 0.2446	0.379 ± 0.008	0.348 ± 0.007	0.322 ± 0.007
x1 = 0.2988	0.397 ± 0.008	0.364 ± 0.008	0.337 ± 0.007
x1 = 0.4004	0.435 ± 0.009	0.398 ± 0.009	0.367 ± 0.008
x1 = 0.47	0.466 ± 0.01	0.426 ± 0.009	0.393 ± 0.008
x1 = 0.5234	0.492 ± 0.01	0.448 ± 0.01	0.412 ± 0.009
x1 = 0.572	0.519 ± 0.011	0.47 ± 0.01	0.429 ± 0.009
x1 = 0.622	0.548 ± 0.012	0.493 ± 0.011	0.449 ± 0.01
x1 = 0.681	0.584 ± 0.012	0.524 ± 0.011	0.475 ± 0.01
x1 = 0.7857	0.654 ± 0.014	0.584 ± 0.012	0.53 ± 0.011
x1 = 0.8603	0.707 ± 0.015	0.632 ± 0.013	0.572 ± 0.012
x1 = 0.9366	0.773 ± 0.016	0.687 ± 0.015	0.618 ± 0.013
